Laboratory results: patent publication US8883841B2, “Oncogenic ras-specific cytotoxic compound and methods of use thereof” (The Board of Regents of the University of Texas System, priority 2005, dated 2014)
pIC50: −log10 of the molar value. “Also recorded” adds a separate entry of the source. Read-outs that look alike come from different tables or passages of the source.

What was measured:
H322 cells = assay: Cell viability, H322 lung cancer cells; format: cell-based, human
H460 cells [1] = conditions: for IC50 in H460 cells: Table 1, value is the negative log10 of mol/L
T-47D = assay: NCI in-vitro testing, T-47D (Breast Cancer)
HCC-2998 = assay: NCI in-vitro testing, HCC-2998 (Colon Cancer)
SR = assay: NCI in-vitro testing, SR (Leukemia); format: cell-based
EKVX = assay: NCI in-vitro testing, EKVX (Non-Small Cell Lung Cancer)
H460 cells [2] = assay: cells; conditions: Homo sapiens, NCI-H460, read-out: IC50 (−LogM), H460, Lung (converted)
NCI-H522 = assay: NCI in-vitro testing, NCI-H522 (Non-Small Cell Lung Cancer)
SW-620 = assay: NCI in-vitro testing, SW-620 (Colon Cancer)
DU-145 = assay: NCI in-vitro testing, DU-145 (Prostate Cancer)
RXF 393 = assay: NCI in-vitro testing, RXF 393 (Renal Cancer)
RPMI-8226 = assay: NCI in-vitro testing, RPMI-8226 (Leukemia)
HCT-116 = assay: NCI in-vitro testing, HCT-116 (Colon Cancer)
COLO 205 = assay: NCI in-vitro testing, COLO 205 (Colon Cancer)
CCRF-CEM = assay: NCI in-vitro testing, CCRF-CEM (Leukemia)
HT29 = assay: NCI in-vitro testing, HT29 (Colon Cancer)

For `O=Cc1cn(Cc2ccc(Cl)cc2)c2ccccc12` [Oncrasin K001, 1H-Indole-3-carboxaldehyde, 1-[(4-chlorophenyl)methyl]-(9CI)], the “IC50 (−LogM)” value (H322 cells; H322, Lung) was 4.5 −LogM, the “toxicity to H322 cells” value (H322 cells; at 33 μM (the highest concentration tested), ras wild-type) was “not toxic” and the “effect on H322 cells” value (H322 cells; wild-type Ras, listed as Oncrasin-1) was “minimal effect; also recorded: not effective”. For the same molecule, the “IC50 (−LogM)” value (H460 cells [1]; H460, Lung) was 6.6 −LogM, the “concentration that effectively kills H460 cells” value (H460 cells [1]; K-ras mutant lung cancer cells) was 1 µM and the “IC50 in H460 cells” value (H460 cells [1]) was 6.6. For the same molecule, the “effect on H460 cells” value (H460 cells [1]; lung cancer cell line) was “highly effective” and the pIC50 (H460 cells [1]; read-out: IC50, H460 cells, K-Ras Q61H) was 6.60.
`O=Cc1cn(Cc2cccc(Cl)c2)c2ccccc12` [Oncrasin K027, 1-(3-chlorobenzyl)-1H-indole-3-carbaldehyde] was tested, and the GI50 (T-47D; Homo sapiens, T47D) was 0.0267 µM, the CC50 (T-47D; Homo sapiens, T47D, read-out: LC50) was > 100 µM and the TGI (T-47D; T-47D) was 4.23E−7 Molar. The “Percent Growth” value (T-47D; T-47D, Log10 Concentration −4.0 Molar) was −14%, the “Percent Growth” value (T-47D; T-47D, Log10 Concentration −5.0 Molar) was −16% and the “Percent Growth” value (T-47D; T-47D, Log10 Concentration −6.0 Molar) was −12%. The “Percent Growth” value (T-47D; T-47D, Log10 Concentration −7.0 Molar) was 20%, the “Percent Growth” value (T-47D; T-47D, Log10 Concentration −8.0 Molar) was 73% and the TGI (HCC-2998; HCC-2998) was 2.04E−5 Molar. For the same molecule, the “Percent Growth” value (HCC-2998; HCC-2998, Log10 Concentration −4.0 Molar) was −97%, the “Percent Growth” value (HCC-2998; HCC-2998, Log10 Concentration −5.0 Molar) was 43% and the “Percent Growth” value (HCC-2998; HCC-2998, Log10 Concentration −6.0 Molar) was 62%. The “Percent Growth” value (HCC-2998; HCC-2998, Log10 Concentration −7.0 Molar) was 86%, the “Percent Growth” value (HCC-2998; HCC-2998, Log10 Concentration −8.0 Molar) was 85% and the GI50 (HCC-2998; Homo sapiens, HCC 2998) was 4.33 µM. For the same molecule, the CC50 (HCC-2998; Homo sapiens, HCC 2998, read-out: LC50) was 46.2 µM, the TGI (SR) was 4.26E−8 Molar and the GI50 (SR; Homo sapiens) was < 0.01 µM. For the same molecule, the “Percent Growth” value (SR; Log10 Concentration −4.0 Molar) was −71%, the “Percent Growth” value (SR; Log10 Concentration −5.0 Molar) was −18% and the “Percent Growth” value (SR; Log10 Concentration −6.0 Molar) was −71%. For the same molecule, the “Percent Growth” value (SR; Log10 Concentration −7.0 Molar) was −25%, the “Percent Growth” value (SR; Log10 Concentration −8.0 Molar) was 43% and the TGI (EKVX) was 6.47E−5 Molar. For the same molecule, the GI50 (EKVX; Homo sapiens) was 21 µM, the CC50 (EKVX; Homo sapiens, read-out: LC50) was > 100 µM and the “Percent Growth” value (EKVX; Log10 Concentration −4.0 Molar) was −22%. For the same molecule, the “Percent Growth” value (EKVX; Log10 Concentration −5.0 Molar) was 94%, the “Percent Growth” value (EKVX; Log10 Concentration −6.0 Molar) was 107% and the “Percent Growth” value (EKVX; Log10 Concentration −7.0 Molar) was 105%. The “Percent Growth” value (EKVX; Log10 Concentration −8.0 Molar) was 103%, the IC50 (H460 cells [2]) was 0.00398 µM and the TGI (NCI-H522) was 1.24E−5 Molar. For the same molecule, the GI50 (NCI-H522; Homo sapiens, NCI-H522) was 2.41 µM, the CC50 (NCI-H522; Homo sapiens, NCI-H522, read-out: LC50) was 51 µM and the “Percent Growth” value (NCI-H522; Log10 Concentration −4.0 Molar) was −74%. For the same molecule, the “Percent Growth” value (NCI-H522; Log10 Concentration −5.0 Molar) was 7%, the “Percent Growth” value (NCI-H522; Log10 Concentration −6.0 Molar) was 76% and the “Percent Growth” value (NCI-H522; Log10 Concentration −7.0 Molar) was 82%. For the same molecule, the “Percent Growth” value (NCI-H522; Log10 Concentration −8.0 Molar) was 91%, the GI50 (SW-620; Homo sapiens, SW-620) was 0.571 µM and the CC50 (SW-620; Homo sapiens, SW-620, read-out: LC50) was > 100 µM. The TGI (SW-620; SW-620) was 1.80E−5 Molar, the “Percent Growth” value (SW-620; SW-620, Log10 Concentration −4.0 Molar) was −46% and the “Percent Growth” value (SW-620; SW-620, Log10 Concentration −5.0 Molar) was 16%. For the same molecule, the “Percent Growth” value (SW-620; SW-620, Log10 Concentration −6.0 Molar) was 39%, the “Percent Growth” value (SW-620; SW-620, Log10 Concentration −7.0 Molar) was 83% and the “Percent Growth” value (SW-620; SW-620, Log10 Concentration −8.0 Molar) was 84%. The TGI (DU-145; DU-145) was 2.78E−5 Molar, the “Percent Growth” value (DU-145; DU-145, Log10 Concentration −4.0 Molar) was −53% and the “Percent Growth” value (DU-145; DU-145, Log10 Concentration −5.0 Molar) was 42%. For the same molecule, the “Percent Growth” value (DU-145; DU-145, Log10 Concentration −6.0 Molar) was 98%, the “Percent Growth” value (DU-145; DU-145, Log10 Concentration −7.0 Molar) was 108% and the “Percent Growth” value (DU-145; DU-145, Log10 Concentration −8.0 Molar) was 108%. The GI50 (DU-145; Homo sapiens, DU-145) was 7.25 µM, the CC50 (DU-145; Homo sapiens, DU-145, read-out: LC50) was 93.3 µM and the GI50 (RXF 393; Homo sapiens, RXF 393) was < 0.01 µM. The CC50 (RXF 393; Homo sapiens, RXF 393, read-out: LC50) was 23.2 µM, the TGI (RXF 393; RXF 393) was 2.44E−7 Molar and the “Percent Growth” value (RXF 393; RXF 393, Log10 Concentration −4.0 Molar) was −85%. For the same molecule, the “Percent Growth” value (RXF 393; RXF 393, Log10 Concentration −5.0 Molar) was −30%, the “Percent Growth” value (RXF 393; RXF 393, Log10 Concentration −6.0 Molar) was −12% and the “Percent Growth” value (RXF 393; RXF 393, Log10 Concentration −7.0 Molar) was 7%. For the same molecule, the “Percent Growth” value (RXF 393; RXF 393, Log10 Concentration −8.0 Molar) was 31%, the GI50 (RPMI-8226; Homo sapiens, RPMI-8226) was 0.372 µM and the CC50 (RPMI-8226; Homo sapiens, RPMI-8226, read-out: LC50) was > 100 µM. For the same molecule, the TGI (RPMI-8226; RPMI-8226) was 3.19E−6 Molar, the “Percent Growth” value (RPMI-8226; RPMI-8226, Log10 Concentration −4.0 Molar) was −35% and the “Percent Growth” value (RPMI-8226; RPMI-8226, Log10 Concentration −5.0 Molar) was −23%. For the same molecule, the “Percent Growth” value (RPMI-8226; RPMI-8226, Log10 Concentration −6.0 Molar) was 24%, the “Percent Growth” value (RPMI-8226; RPMI-8226, Log10 Concentration −7.0 Molar) was 85% and the “Percent Growth” value (RPMI-8226; RPMI-8226, Log10 Concentration −8.0 Molar) was 119%. The TGI (HCT-116; HCT-116) was 1.06E−5 Molar, the “Percent Growth” value (HCT-116; HCT-116, Log10 Concentration −4.0 Molar) was −84% and the “Percent Growth” value (HCT-116; HCT-116, Log10 Concentration −5.0 Molar) was 2%. The “Percent Growth” value (HCT-116; HCT-116, Log10 Concentration −6.0 Molar) was 10%, the “Percent Growth” value (HCT-116; HCT-116, Log10 Concentration −7.0 Molar) was 30% and the “Percent Growth” value (HCT-116; HCT-116, Log10 Concentration −8.0 Molar) was 68%. The GI50 (HCT-116; Homo sapiens, HCT-116) was 0.0294 µM, the CC50 (HCT-116; Homo sapiens, HCT-116, read-out: LC50) was 60.6 µM and the TGI (COLO 205; COLO 205) was 1.58E−5 Molar. For the same molecule, the “Percent Growth” value (COLO 205; COLO 205, Log10 Concentration −4.0 Molar) was −72%, the “Percent Growth” value (COLO 205; COLO 205, Log10 Concentration −5.0 Molar) was 18% and the “Percent Growth” value (COLO 205; COLO 205, Log10 Concentration −6.0 Molar) was 51%. For the same molecule, the “Percent Growth” value (COLO 205; COLO 205, Log10 Concentration −7.0 Molar) was 93%, the “Percent Growth” value (COLO 205; COLO 205, Log10 Concentration −8.0 Molar) was 88% and the GI50 (COLO 205; Homo sapiens, COLO 205) was 1.05 µM. It also gave a CC50 (COLO 205; Homo sapiens, COLO 205, read-out: LC50) of 5.69 µM, a GI50 (CCRF-CEM; Homo sapiens) of 1.74 µM and a CC50 (CCRF-CEM; Homo sapiens, read-out: LC50) of 14.8 µM. The “Percent Growth” value (CCRF-CEM; Log10 Concentration −4.0 Molar) was −67%, the “Percent Growth” value (CCRF-CEM; Log10 Concentration −5.0 Molar) was −47% and the “Percent Growth” value (CCRF-CEM; Log10 Concentration −6.0 Molar) was 87%. For the same molecule, the “Percent Growth” value (CCRF-CEM; Log10 Concentration −7.0 Molar) was 97%, the “Percent Growth” value (CCRF-CEM; Log10 Concentration −8.0 Molar) was 100% and the TGI (HT29; HT29) was 2.01E−6 Molar. The “Percent Growth” value (HT29; HT29, Log10 Concentration −4.0 Molar) was −66%, the “Percent Growth” value (HT29; HT29, Log10 Concentration −5.0 Molar) was 29% and the “Percent Growth” value (HT29; HT29, Log10 Concentration −6.0 Molar) was 68%. The “Percent Growth” value (HT29; HT29, Log10 Concentration −7.0 Molar) was 79%, the “Percent Growth” value (HT29; HT29, Log10 Concentration −8.0 Molar) was 103% and the GI50 (HT29; Homo sapiens, HT-29) was 0.00183 µM. The CC50 (HT29; Homo sapiens, HT-29, read-out: LC50) was 6.76 µM, the “IC50 in H460 cells” value (H460 cells [1]; listed as K27) was 7 and the “IC50 in H460 cells” value (H460 cells [1]) was 8.43.
